According to patent US20120035187A1 (priority 2009, published 2012):
Read-outs that look alike come from different tables or passages of the source.

Experiments:
PC12-HS cells [1] = assay: Evaluation A: neurocyte (cell)-growth-promoting action, ALAMAR BLUE; type: cell-based, rat
Procedure: Then, the effects of test samples were judged as follows:
The relative value of 140 to 199: Equivalent effect to that of NK-4, symbol (∘); The relative value of 200 or higher: Stronger effect than that of NK-4, symbol ([…]). • The results are in Table 6.
The relative fluorescent intensity of each well was determined by using the fluorescent intensity of each well with cells, which had been cultured by admixing with D-MEM medium containing 10% by volume of FBS without any of the compounds, and the intensity of the resulting culture was regarded as 100%. The results are expressed as cell survival percentages (%) in Table 9. […]
The test was conducted twice for each test sample in a triplicate manner and the data were averaged.
Seven compounds as in Table 17, NK-234, NK-26, NK-9815, NK-9694, NK-28 and NK-147 as well as NK-4, were each dissolved in DMSO to give a concentration of 5 mg/ml. […] The test was conducted twice for each test sample in a triplicate manner and the data were averaged.

PC12-HS cells [2] = assay: Evaluation B: neurite-outgrowth action in presence of NGF; type: cell-based, rat; conditions: for Percentage (%) of cells with neurite outgrowth: 50 μl/well of 2 μg/ml test solution + NGF final 5 ng/ml, 3 days
[3] = Hydroxyl radical-scavenging activity, ESR (Fenton reaction)
Procedure: Stock solutions, prepared by dissolving NK-4, NK-19, NK-53, NK-100, and NK-557 in DMSO, were respectively diluted with refined water to give concentrations of 3-folds higher than those in Table 14 and used as test sample solutions. As a positive control, a neuroprotectant, “edaravone”, commercialized as “RADICUT®” containing 3-methyl-1-phenyl-2-pyrazoline-5-one as an effective ingredient by Mitsubishi Tanabe Pharma Corporation, Osaka, Japan, was diluted with refined water to give a concentration of 3-folds higher than that in Table 14 for use. To 50 μl of refined water, 50 μl of 89 mM DMPO ([…]) commercialized by Dojindo Laboratories, Kumamoto, Japan, 50 μl of the test sample solution, and 50 μl of an aqueous solution containing 1 mM hydrogen peroxide, 1 mM FeSO4, and 1 mM DTPA, commercialized by Wako Pure Chemical Industries, Osaka, Japan, were added, mixed for 10 seconds using a vortex mixer and allowed to react in an incubator controlled at 37° for 40 seconds. After 30 seconds from completion of the reaction, the resulting reaction mixture was subjected to ESR measurement. A control solution was prepared by the same method as above except for using 50 μl of a diluted edaravone solution as a substitute for the test sample solution, and subjected to ESR measurement.
The reaction mixture for measuring hydroxyl or peroxyl radicals was poured into a flat quartz cell for ESR, set to “FREE RADICAL MONITOR JES-FR30”, an ESR apparatus commercialized by JOEL Ltd., Tokyo, Japan, and ESR was measured according to manual manner. The residual ratio of peroxyl radical (%) was determined as a relative value by defining the ESR value, obtained by using 0.1 M phosphate buffer as a substitute of the test sample solution, as 100. The results are in Tables 14 and 15. […] Therefore, the IC50 of edaravone was determined by another test using its higher concentration, and the result is also shown in Table 14. The conditions of the ESR measurement were set as follows: […]

PC12-HS cells [4] = system: PC12-HS cells; parameters: suppression of cytotoxicity by 6-hydroxy dopa (in words): dose or concentration left out as unconfirmed
Procedure: 6-Hydroxy dopa was used as a cytotoxic agent. Similarly as in Experiment 1, PC12-HS cells, which had been cultured in D-MEM medium supplemented with 10 v/v % FBS, were inoculated to 96-well microplates by 2×10^4/100 μl/well. […] Thereafter, the cells were fixed with 10% glutaraldehyde and the absorbance at 650 nm was measured by conventional dye-uptake method using methylene blue.

[5] = molecular target: T1, acetylcholine esterase (AchE) (Rattus norvegicus, UniProt P37136); assay: biochemical; type: biochemical
T1 sequence (P37136 32-614): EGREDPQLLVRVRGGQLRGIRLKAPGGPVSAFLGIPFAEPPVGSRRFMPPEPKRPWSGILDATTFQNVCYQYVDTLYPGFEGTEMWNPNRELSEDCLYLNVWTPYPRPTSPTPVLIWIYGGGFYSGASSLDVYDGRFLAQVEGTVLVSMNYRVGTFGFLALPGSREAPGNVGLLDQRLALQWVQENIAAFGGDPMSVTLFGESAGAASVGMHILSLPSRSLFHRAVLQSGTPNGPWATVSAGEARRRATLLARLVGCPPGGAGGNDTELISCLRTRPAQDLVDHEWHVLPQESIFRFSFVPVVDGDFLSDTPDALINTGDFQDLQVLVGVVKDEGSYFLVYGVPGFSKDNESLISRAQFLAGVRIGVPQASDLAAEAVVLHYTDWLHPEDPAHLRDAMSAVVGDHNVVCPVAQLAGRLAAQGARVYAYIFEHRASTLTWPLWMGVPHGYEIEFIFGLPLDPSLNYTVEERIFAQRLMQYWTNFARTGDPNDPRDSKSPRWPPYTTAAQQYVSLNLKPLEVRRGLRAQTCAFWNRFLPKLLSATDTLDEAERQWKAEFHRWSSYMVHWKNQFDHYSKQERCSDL

brain ischemia rat [6] = assay: Brain ischemia (cerebral infarction model) rat: behavioral score; type: in vivo; parameters: Behavioral score: scale not given here; conditions: for Behavioral score: embolus rat, caudal vein
Procedure: Male SD rats, seven- to eight-weeks of age and 280 to 330 g body weight, commercialized by Charles River Laboratories Japan Inc., Kanagawa, Japan, were allocated randomly into seven groups, consisting of five to seven rats in each group. Among the seven groups, five groups were subjected to the following surgery as test groups: Rats in the test groups were subcutaneously administered with 0.3 mg/kg body weight of atropine, commercialized by Fuso Pharmaceutical industries, Osaka, Japan. Successively, each rat was anesthetized by administrating 600 mg/kg body weight of urethane, commercialized by Sigma-Aldrich Co., MO, USA, and 60 mg/kg-weight of […], commercialized by Sigma-Aldrich Co., MO, USA, into the peritoneal cavity, and fixed to a fixator under voluntary breathing conditions. The right carotid artery bifurcation was exposed by median incision of the neck without damaging vagus nerve. The common carotid artery and external carotid artery around the right carotid artery bifurcation were exfoliated from surrounding connective tissue and wired respectively using “NESCOSUTURE”, a 6-0 nylon string commercialized by Alfresa Pharma Corporation, Osaka, Japan. Then, the internal carotid artery was tied with the 6-0 nylon string for fixation after insertion of an obturator. Successively, the common carotid artery was incised and a silicon-coated obturator, prepared by a 4-0 nylon string, commercialized by Doccol Corp., CA, USA, was inserted from the common carotid artery into the internal carotid artery at a distance of about 16 mm, and clipped to the common carotid artery (see, for example, Koizumi et al., Cerebral stroke, Vol. 8, No. 1, pp. 1-8 (1986)). By the method, the silicon-coated tip of obturator was inserted through the right carotid artery bifurcation to frontal cerebral artery at a distance of about 2 mm and obstructs the inlet of the medial cerebral artery. After two hours occlusion of the medial cerebral artery while keeping the rat on an isothermal pad controlled at a temperature of 37° C., blood was allowed to reperfuse by withdrawing the obturator. Then, the internal carotid artery was tied near the carotid artery bifurcation for preventing the bleeding from the incised part of the common carotid artery. In the model, the blood was reperfused through the left carotid artery, vertebral artery, basilar artery, frontal and backward communication artery because the right carotid artery was clipped.
NK-4, NK-19, NK-53, NK-100, and NK-557, used in the test, were respectively dissolved in DMSO (product No. “D8418”, commercialized by Sigma-Aldrich Co., MO, USA) to give a concentration of 5 mg/ml and filtrated using “MILLEX-LG SLLG025SS”, a DMSO-resistant membrane filter commercialized by Millipore, MA, USA. Stock […], and then 4 ml/kg body weight of any of the resulting diluted solutions was administered ([…]) to five test groups (test groups 1 to 5) consisting of five or seven rats, through their caudal veins at both after one hour from the occlusion of middle cerebral artery and immediately after initiating reperfusion. After 24 hours from the reperfusion of blood, behavioral and histological evaluations of rats were carried out according to the following procedures: As a control group 1, five rats in one group out of the remaining two groups were subjected to the same surgery as the rats in the test groups 1 to 5, and administered with 4 ml/kg body weight of PBS free of any of the compounds through their caudal veins at both after one hour of the medial cerebral artery occlusion and immediately after the start of reperfusion. As the control group 2, six rats in the remaining one group were subjected to a sham surgery, in which common, external, and internal carotid arteries were clipped and then reperfused their blood without inserting the obturator to each medial cerebral artery. […]

brain ischemia rat [7] = assay: Brain ischemia (cerebral infarction model) rat: size/volume of cerebral infarction region (TTC); type: in vivo; conditions: for Volume of cerebral infarction region (mm^3): embolus rat, caudal vein
[8] = compound concentration 25 ng/ml
[9] = compound concentration 50 ng/ml
[10] = compound concentration 100 ng/ml
[11] = compound concentration 200 ng/ml
[12] = compound concentration 80 ng/ml
[13] = compound concentration 400 ng/ml
[14] = compound concentration 2000 ng/ml
[15] = compound concentration 10000 ng/ml
[16] = concentration of compound 3.13 μg/ml
[17] = concentration of compound 6.25 μg/ml
[18] = concentration of compound 12.5 μg/ml
[19] = Experiment 13, cerebral-infarction-model rat, administered through caudal vein
[20] = 100 μl/well of 100 ng/ml test solution, 3 days, control = 100

CCCCCCN1C=CC(=CC=C(C=Cc2cc[n+](CCCCCC)c3ccccc23)c2cc[n+](CCCCCC)c3ccccc23)c2ccccc21.[I-].[I-] [NK-9694]
Action of enhancing cell growth (%) (PC12-HS cells [1]; [8]): 269 ± 17% | Action of enhancing cell growth (%) (PC12-HS cells [1]; [9]): 123 ± 88% | Action of enhancing cell growth (%) (PC12-HS cells [1]; [10]): 402 ± 111% | Action of enhancing cell growth (%) (PC12-HS cells [1]; [11]): 320 ± 36% | Action on neurite outgrowth (%) (PC12-HS cells [2]; [12]): 45 ± 8% | Action on neurite outgrowth (%) (PC12-HS cells [2]; [13]): 55 ± 14% | Action on neurite outgrowth (%) (PC12-HS cells [2]; [14]): 38 ± 12% | Action on neurite outgrowth (%) (PC12-HS cells [2]; [15]): 10< % | IC50 (μg/ml) of hydroxyl radical-scavenging activity [3]: 3.4 µg/mL | suppression of cytotoxicity by 6-hydroxy dopa (in words) (PC12-HS cells [4]; 6-hydroxy dopa, 24 hours): significantly suppressed | Survival-cell percentage (%) (PC12-HS cells [4]; 6-hydroxy dopa, 24 hours, compound 0.83 ng/ml): 62 ± 1% | Survival-cell percentage (%) (PC12-HS cells [4]; 6-hydroxy dopa, 24 hours, compound 3.3 ng/ml): 68 ± 2 % | Survival-cell percentage (%) (PC12-HS cells [4]; 6-hydroxy dopa, 24 hours, compound 13 ng/ml): 67 ± 0 % | Survival-cell percentage (%) (PC12-HS cells [4]; 6-hydroxy dopa, 24 hours, compound 50 ng/ml): 62 ± 3% | Survival-cell percentage (%) (PC12-HS cells [4]; 6-hydroxy dopa, 24 hours, compound 200 ng/ml): 47 ± 1% | Survival-cell percentage (%) (PC12-HS cells [4]; 6-hydroxy dopa, 24 hours, compound 800 ng/ml): 42 ± 1%

CCCCCN1C=CC(=CC=C(C=Cc2cc[n+](CCCCC)c3ccccc23)c2cc[n+](CCCCC)c3ccccc23)c2ccccc21.[I-].[I-] [NK-9815]
Action of enhancing cell growth (%) (PC12-HS cells [1]; [8]): 304 ± 26% | Action on neurite outgrowth (%) (PC12-HS cells [2]; [12]): 68 ± 12% | Action on neurite outgrowth (%) (PC12-HS cells [2]; [13]): 62 ± 12% | Action on neurite outgrowth (%) (PC12-HS cells [2]; [14]): 56 ± 2% | Action on neurite outgrowth (%) (PC12-HS cells [2]; [15]): 11 ± 2% | Residual ratio of AchE activity (%) ([5]; concentration of compound 0.78 μg/ml): 82 ± 2% | Residual ratio of AchE activity (%) ([5]; concentration of compound 1.56 μg/ml): 98 ± 24% | Residual ratio of AchE activity (%) [5, 16]: 93 ± 36% | Residual ratio of AchE activity (%) [5, 17]: 94 ± 16% | Residual ratio of AchE activity (%) [5, 18]: 56 ± 7 % | Residual ratio of AchE activity (%) ([5]; concentration of compound 25 μg/ml): 41 ± 14 % | Residual ratio of AchE activity (%) ([5]; concentration of compound 50 μg/ml): 24 ± 4 % | IC50 ([5]; concentration that suppresses AchE activity by 50%, calculated from residual ratios): 17.3 µg/mL

CC1=NN(c2ccccc2)C(=O)C1 [Edaravone, 3-methyl-1-phenyl-2-pyrazoline-5-one, reference compound]
behavioral score (in words) (brain ischemia rat [6]; [19]): significantly improved | Behavioral score (brain ischemia rat [6]; dose 0.3 mg per kg body weight): 4.7 ± 0.4 | Behavioral score (brain ischemia rat [6]; dose 1 mg per kg body weight): 3.7 ± 0.5 | Behavioral score (brain ischemia rat [6]; dose 3 mg per kg body weight): 4.8 ± 0.2 | increment of the volume of cerebral infarction region (in words) (brain ischemia rat [7]; [19]): not significantly suppressed | Volume of cerebral infarction region (mm^3) (brain ischemia rat [7]; dose 0.3 mg per kg body weight): 179 ± 27 mm^3 | Volume of cerebral infarction region (mm^3) (brain ischemia rat [7]; dose 1 mg per kg body weight): 152 ± 28 mm^3 | Volume of cerebral infarction region (mm^3) (brain ischemia rat [7]; dose 3 mg per kg body weight): 183 ± 16 mm^3 | IC50 (μg/ml) of hydroxyl radical-scavenging activity [3]: 148.0 µg/mL | Residual ratio of hydroxyl radical (%) ([3]; concentration of compound 2.5 μg/ml): 100% | Residual ratio of hydroxyl radical (%) [3, 16]: 100% | Residual ratio of hydroxyl radical (%) [3, 17]: 100% | Residual ratio of hydroxyl radical (%) [3, 18]: 100% | suppression of cytotoxicity by 6-hydroxy dopa (in words) (PC12-HS cells [4]): can not suppress the cytotoxicity

CCCCCCN1C(C)=CS\C1=C/C=C(\C=C\c1scc(C)[n+]1CCCCCC)c1scc(C)[n+]1CCCCCC.[I-].[I-] [NK-392]
Action of enhancing cell growth (%) (PC12-HS cells [1]; [20]): 560% | Action of enhancing cell growth (%) (PC12-HS cells [1]; [8]): 349 ± 63% | Action of enhancing cell growth (%) (PC12-HS cells [1]; [9]): 601 ± 93% | Action of enhancing cell growth (%) (PC12-HS cells [1]; [10]): 607 ± 71% | Action of enhancing cell growth (%) (PC12-HS cells [1]; [11]): 460 ± 41% | Percentage (%) of cells with neurite outgrowth (PC12-HS cells [2]): 44% | Action on neurite outgrowth (%) (PC12-HS cells [2]; [12]): 44 ± 12% | Action on neurite outgrowth (%) (PC12-HS cells [2]; [13]): 48 ± 2% | Action on neurite outgrowth (%) (PC12-HS cells [2]; [14]): 76 ± 8% | Action on neurite outgrowth (%) (PC12-HS cells [2]; [15]): 81 ± 10%

CCCCN1C(C)=CS\C1=C/C=C(\C=C\c1scc(C)[n+]1CCCC)c1scc(C)[n+]1CCCC.[I-].[I-] [NK-24]
Action of enhancing cell growth (%) (PC12-HS cells [1]; [20]): 581% | Percentage (%) of cells with neurite outgrowth (PC12-HS cells [2]): 33%
